For 86 compounds, melting point results are on record in a melting point compilation (Tetko et al.; mined from patent text by program, amines drawn as free bases though some values may be those of a salt).

The term melting point denotes the temperature, or range, at which the solid turns liquid. As for `CCOC(=O)COc1ccc(SCc2cccc3nc(-c4ccc(C(F)(F)F)cc4)oc23)cc1C`, the melting point lay in the range of 180 to 182 °C.
To `CCCCCCCCCCCCCCCCOCC(COC(c1ccccc1)(c1ccccc1)c1ccccc1)COS(C)(=O)=O` (stereo unspecified) belongs 39 °C; to `C[C@H](CO)Nc1nc(SCc2cccc(F)c2F)nc2[nH]c(=O)c(NCc3ccccc3)nc12`, 80 to 100 °C.
For `CN(C)C1(Cc2ccccc2)CCC(c2[nH]c3ccccc3c2Cc2ccccc2)CC1` (stereo unspecified) the value was 140 to 143 °C; for `O=CN1CCN(C[C@H](O)COc2cccc3[nH]ccc23)CC1`, 106 to 107 °C.
`CC(c1cccc(C(=O)c2ccccc2)c1)C(O)CC#N` (stereo unspecified) yielded a melting point of 130 °C.
For `O=C(c1cccs1)c1cnn2c(-c3cccc(-c4nnn(Cc5ccncc5)n4)c3)ccnc12` the value was 170 °C.
The compound `COc1ccc(C(=O)c2csc(S(N)(=O)=O)c2)cc1` showed a melting point of 173 to 175 °C.
To `CCn1c2ccccc2c2cc(N(Cc3ccccc3)Cc3ccccc3)ccc21` belongs 123 to 125 °C; to `Cc1cc(C(=O)N(C)C)c(O)c([N+](=O)[O-])c1`, 160 to 162 °C; to `CC(C)(C)c1ccc(S(=O)(=O)Nc2ccc(-c3cn(C4CCCC4)c4ncnc(N)c34)cc2O)cc1`, 278 to 280 °C.
In turn, `CC(C)N(C(C)C)C(C)CN1C(=O)C(=O)c2ccccc21` (stereo unspecified) registered a melting point of 111 to 112 °C.
For `CCCn1cc(Cc2ccc(C(=O)OC)cc2OC)c2cc(C=C(C)C(=O)O)ccc21` the value was 159 to 161 °C; for `ClCCN1c2cc3c(cc2C(c2cccs2)=NCC1CCl)OCCO3` (stereo unspecified), 184 to 187 °C; for `CCCCNC(=O)C(c1ccccc1)c1ccccc1`, 96 °C.
For the compound `CC1(C)NC(=S)C1(C)C`, the melting point was 117 to 118 °C.
For `CC(CNc1ccc(Cl)cc1[N+](=O)[O-])OS(C)(=O)=O` (stereo unspecified) the value was 106 to 108 °C.
For `Brc1ccc(-c2coc3c2ccc2ccccc23)cc1` the value was 125 to 130 °C; for `CC(C)(C)OC(=O)NCc1ccc(CC(=O)O)cc1`, 89 to 91 °C.
For the compound `CCOC(=O)CCCCCCCCOC1OC(CO)C(O)C(O)C1NC(C)=O` (stereo unspecified), the melting point turned out to be 112 °C.
Take `CCOC(=O)C(C)(C)OC1(CCCNC(=O)c2cc(Cl)ccc2OC)C=CC(c2ccccc2)=CC1` (stereo unspecified): the melting point was < 20 °C.
The compound `Cc1oc(-c2ccccc2Cl)nc1CCOc1ccc(CC2SC(=O)NC2=O)cn1` (stereo unspecified) had a melting point of 176 to 177 °C.
For the compound `Cc1nn(-c2c(Cl)cc(C(F)(F)F)cc2Cl)c(C)c1C=O`, the melting point lay within 82 to 83 °C.
To `CCn1c(=O)c2c(nc(/C=C/c3cc4c(c(OC(C)=O)c3)OCO4)n2C)n(CC)c1=O` belongs > 270 °C.
For `CN(C)CCNc1ccc(CNS(C)(=O)=O)c2sc3ccccc3c(=O)c12` the value was 126 to 127 °C; for `Cc1cc(-c2cc(COS(C)(=O)=O)c(=O)n(CC=Cc3ccc(Cl)cc3)n2)ccc1F`, 118 to 120 °C; for `Cc1ccc(-c2cccc(/C=C/C(=O)Nc3ccc(Cc4ccccn4)cc3)c2)cc1`, 169 to 171 °C.
To `N#Cc1ccc2c(c1)[nH]c(=S)n2NC(=O)c1ccc(Cl)c(S(N)(=O)=O)c1` belongs 315 °C.
For the compound `COC1=C(N=O)C(=O)NC1=Cc1ccccc1`, the melting point worked out at 172 °C.
To `O=C(Nc1ccc(-c2cccc(C(=O)O)c2)cc1)OCC1c2ccccc2-c2ccccc21` belongs 226 to 228 °C; to `NCC1Cc2cc(F)cc(-c3ccc(Cl)cc3Cl)c2O1` (stereo unspecified), 107 to 109 °C.
`O=C(c1ccc(Cl)c([N+](=O)[O-])c1)c1cnc(NC2CCCCC2)s1` came in with a melting point of 194 to 198 °C.
To `COc1cccc2c(CCNC3COc4c(F)ccc(C(N)=O)c4C3)coc12` (stereo unspecified) belongs 172 to 174 °C; to `Cc1nnc(-c2ccc3occ(C(=O)N4CCOCC4)c3c2)o1`, 168 to 169 °C.
`O=C(Oc1ccccc1)c1ccc(C(=O)Oc2ccccc2)c(C(=O)Oc2ccccc2)c1`: the melting point was in the range of 156 to 158 °C.
`CCC12CCC3C4CCC(OC)=CC4=CCC3C1C(OC(C)=O)CC2=O` (stereo unspecified) displayed a melting point of 190 °C.
The compound `N#CCc1cccc(-c2ccc3c(c2)C2(CCCCC2)C(=O)N3)c1` returned a melting point of 190 to 193 °C.
For `CC(C)c1cc(-c2cc(C(=O)Cl)ccc2S(C)(=O)=O)on1` the value was 102 to 105 °C; for `CNC(=O)c1cc(Oc2ccc(NC(=O)Nc3ccc4c(cnn4C)c3)c(F)c2)ccn1`, 231 to 234 °C; for `Clc1ccccc1COc1c(Cl)cc(OCC=C(Br)Br)cc1Cl`, 83.5 °C.
On to `CCOc1nn(Cc2ccc(OCc3nc(-c4cccs4)oc3C)cc2)cc1CCC(=O)O`, for which the melting point lay within 156 to 157 °C.
To `COc1ccc(C2=NN(CCCCBr)C(=O)[C@H]3CC=CC[C@@H]23)cc1Cl` (relative stereo) belongs 109 to 111 °C; to `N#CC1=C(C#N)Sc2nc3cc(Cl)ccc3nc2S1`, 278 to 280 °C; to `Cn1cc(-c2cnc3c(c2)N(Cc2cc(Cl)ccc2C(F)(F)F)CCN3)cn1`, 156 °C.
In the case of `O=C(O)COCC(Cc1ccccc1)NC(=O)OCc1ccccc1` (stereo unspecified), the melting point was in the range of 96 to 100 °C.
For `CCC(O)(CC)[C@H](C[C@H](O)[C@H](CC1CCCCC1)NC(=O)[C@H](Cc1cscn1)NC(=O)OC(C)(C)C)C(=O)NC` the value was 165 to 168 °C.
As for `CC(OCCc1ccc([N+](=O)[O-])cc1)OC1C(O)C(CO)OC1n1ccc(=O)[nH]c1=O` (stereo unspecified), the melting point worked out at 162 °C.
For `O=C(O)C(Sc1nc2cc(Cl)ccc2s1)c1ccccc1` (stereo unspecified) the value was 190 to 192 °C; for `COc1ccc2c(c1)Sc1cc(N)ccc1N2C`, 142 to 143 °C.
As for `CC(C)(C)c1cnc(CSc2cnc(NC(=O)Cc3ccc(OCCCC(=O)Nc4ccccn4)cc3)s2)o1`, the melting point was in the range of 126 to 129 °C.
To `CCc1c(Oc2cnc(N)nc2N)cc(C)c2sccc12` belongs 181 °C; to `O=C(NCCCC1CCC2=C1CC=CC2)C(F)(F)F` (stereo unspecified), 61 to 62 °C.
For `CCN(CC)C(C)CN(c1c(C)cccc1C)S(C)(=O)=O` (stereo unspecified) the value was 58 to 60 °C; for `CN1CCC(Oc2cccc(C(=O)Nc3cc(NC(=O)c4ccc(C#N)cc4)ccc3Cl)c2)CC1`, 177 to 179 °C; for `O=C(Nc1ccc(CN2C(=O)[C@H]3CCC[C@H]3N(C(=O)CN3C(=O)c4ccccc4C3=O)c3ccccc32)cc1)c1ccccc1` (relative stereo), 252 to 255 °C.
To `C=CCOCC(O)CN1CCN(c2nc(-c3ccccc3)nc3ccccc23)CC1` (stereo unspecified) belongs 85 to 87 °C; to `COc1ccc(-c2nc(CCO)nc3cc(OC)c(OC)cc23)cc1OC`, 165 to 166 °C.
In turn, `COc1cc2c(cc1OC)C(=O)C(CN1CCC(O)(c3ccccc3)CC1)CC2` (stereo unspecified) gave a melting point of 175 to 177 °C.
Turning to `COC(=O)c1cc(OCC=C(Cl)Cl)cc(Cl)c1OCC=C(Cl)Cl`, the melting point turned out to be 63 °C.
`COc1ccccc1NC(=O)Nc1nc(Oc2ccc3ccccc3c2)nc(N(CCC(=O)O)Cc2cccc3ccccc23)n1` came in with a melting point of 230 to 233 °C.
For `Cc1cc(C)c(C=O)c(O)c1` the value was 46 to 48 °C; for `COc1cc2c(Nc3ccc(Sc4ccccn4)c(Cl)c3)c(C#N)cnc2cc1F`, 225 to 228 °C.
For `CNCC1Cc2cc(OC)cc(-c3ccccc3F)c2O1` (stereo unspecified) the value was 110 to 112 °C; for `CCOC(=O)C1(C(=O)OCC)CCc2cc(Br)ccc2N1Cc1ccccc1`, 116 to 117 °C; for `Cc1oc(-c2ccccc2)nc1CCOc1ccc(CN(O)C(N)=O)cc1`, 148 to 150 °C.
For `C#CCOc1ccc2c(c1)c(-c1ccc(C(C)C)cc1)nc(=O)n2Cc1cccc(OC(C)(C)C)n1` the value was 62 to 65 °C.
Turning to `CCN(CCc1ccc(NS(C)(=O)=O)cc1)CCc1ccc(NS(C)(=O)=O)cc1`, the melting point was < 60 °C.
To `COc1ccc(NC(=O)N(C)C)cc1` belongs 126 to 130 °C; to `CC(S)C(O)(Cn1cncn1)c1ccc(F)cc1F` (stereo unspecified), 145 to 147 °C; to `CCCn1cc(C2(c3cccc(Br)c3)N=C(N)N(C)C2=O)cc1C(=O)CC` (stereo unspecified), 260 °C.
Compound `Cc1nc(-c2cc3cc(OCCNC[C@H](O)c4cccc(Cl)c4)ccc3o2)cs1` registered a melting point of 127 to 129 °C.
To `COc1cc(N)c2c(c1)OC(C)C2` (stereo unspecified) belongs 59 to 61 °C.
To `O=C(NC(Cc1ccc(F)cc1)C(=O)O)c1cn2cc(-c3ccc(Cl)cc3)ccc2n1` (stereo unspecified) belongs 266 °C; to `CC(C)(C)OC(=O)NCCc1ccnc(-c2nc(=O)c3ccc(Cl)cc3s2)c1`, 168 to 169 °C.
To `Cc1cc(COc2cccc3c2CN(C2CCC(=O)NC2=O)C3=O)on1` (stereo unspecified) belongs 278 to 280 °C.
`O=C1CC2Cc3ccccc3C2N1` (stereo unspecified) displayed a melting point of 150 to 153 °C.
For `O=c1cc(CBr)c2cc(O)ccc2o1` the value was 198 to 200 °C; for `N#CC=Cc1ccc(C=Cc2ccc(C=CC#N)cc2)cc1`, 219 to 221 °C.
For `Cn1ccnc1Sc1ccc(Nc2c(C#N)cnc3cc(/C=C/CCN4CCOCC4)ccc23)cc1Cl` the value was 232 to 238 °C.
For `COc1cc(OC)cc(S(=O)(=O)c2ccc([N+](=O)[O-])cc2)c1` the value was 150 to 152 °C; for `COc1ccc(OC2SCC(O)C(O)C2O)cn1` (stereo unspecified), 159 to 161 °C; for `CC(C)(C)OC(=O)C1=C(c2ccccc2)C(c2ccccc2)OC1=O` (stereo unspecified), 109 to 111 °C.
With `CC(c1ccc(-c2ccccc2F)cc1)S(=O)CC(=O)N(C)C` (stereo unspecified), the melting point is 131 to 133 °C.
As to `Cn1cnc2c1c(=O)n(CCCCC(=O)CBr)c(=O)n2C`, the melting point was 125 to 135 °C.
For `COc1ccc(C=Cc2nc3c([nH]2)c(=O)n(C)c(=O)n3C)cc1OC` the value was > 320 °C; for `O=C(NC(Cc1ccccc1)C(=O)O)c1ccc2cc(NCc3ccccc3)ccc2c1` (stereo unspecified), 172 °C.
